Experimental data: ChEMBL document CHEMBL4477199, “Design and synthesis of novel bicalutamide and enzalutamide derivatives as antiproliferative agents for the treatment of prostate cancer” (Eur J Med Chem, 2016)

Key:
DU-145 = assay: Antiproliferative activity against human DU145 cells after 96 hrs by propidium iodide staining based fluorescence 2D monolayer assay; type: functional, cell-based; details: DU-145, 96 h
[1] = 33000 µM
Description: Solubility in 100% DMSO at 33 mM at -20 degC

[2] = 96 h
Description: Solubility in RPMI1640 culture medium at <30 uM incubated for 4 days by microscopic analysis

VCaP = assay: Antiproliferative activity against human VCaP cells after 96 hrs by propidium iodide staining based fluorescence 2D monolayer assay; type: functional, cell-based
LNCaP = assay: Antiproliferative activity against human LNCAP cells after 96 hrs by propidium iodide staining based fluorescence 2D monolayer assay; type: functional, cell-based
CWR22R = assay: Antiproliferative activity against human 22Rv1 cells after 96 hrs by propidium iodide staining based fluorescence 2D monolayer assay; type: functional, cell-based; details: 22Rv1, 96 h
Androgen receptor = target: T1, Androgen receptor (Rattus norvegicus, UniProt P15207); assay: (§1) Antagonist activity at rat androgen receptor fused with DNA-binding domain of GAL4 expressed in AR-UAS-bla GripTite 293 cells assessed as inhibition of R1881-induced receptor activation preincubated for 30 mins followed by R1881 addition measured after 16 to 24 hrs by betalactamase reporter gene assay; type: cell-based
T1 sequence (P15207 whole entry): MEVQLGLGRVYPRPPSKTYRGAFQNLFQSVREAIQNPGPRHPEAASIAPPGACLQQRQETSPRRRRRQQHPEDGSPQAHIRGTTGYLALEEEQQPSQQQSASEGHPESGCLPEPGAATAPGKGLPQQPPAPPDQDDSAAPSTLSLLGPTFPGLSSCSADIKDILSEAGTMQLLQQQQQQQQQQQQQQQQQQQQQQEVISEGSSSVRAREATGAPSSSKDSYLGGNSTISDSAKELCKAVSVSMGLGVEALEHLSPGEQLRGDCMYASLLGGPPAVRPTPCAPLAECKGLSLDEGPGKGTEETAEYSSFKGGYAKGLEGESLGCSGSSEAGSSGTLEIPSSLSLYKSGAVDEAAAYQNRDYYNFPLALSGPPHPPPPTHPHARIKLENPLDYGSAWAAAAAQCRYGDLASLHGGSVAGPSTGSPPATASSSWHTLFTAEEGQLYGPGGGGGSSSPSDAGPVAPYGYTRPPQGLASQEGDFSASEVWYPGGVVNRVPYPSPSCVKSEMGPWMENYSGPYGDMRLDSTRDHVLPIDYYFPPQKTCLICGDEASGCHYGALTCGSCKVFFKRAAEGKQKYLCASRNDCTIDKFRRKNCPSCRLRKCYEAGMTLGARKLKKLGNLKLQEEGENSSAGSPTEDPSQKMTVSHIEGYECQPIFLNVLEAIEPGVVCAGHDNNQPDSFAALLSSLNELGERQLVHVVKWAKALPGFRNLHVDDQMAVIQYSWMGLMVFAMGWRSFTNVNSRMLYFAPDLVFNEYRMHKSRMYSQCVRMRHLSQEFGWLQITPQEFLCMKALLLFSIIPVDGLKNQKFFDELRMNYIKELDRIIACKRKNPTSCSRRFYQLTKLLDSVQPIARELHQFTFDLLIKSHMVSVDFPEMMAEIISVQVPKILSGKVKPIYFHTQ

[3] = target: T2, Androgen receptor (Rattus norvegicus) (UniProt P15207); assay: as §1; type: cell-based
T2 sequence (whole entry): T1 sequence (P15207 whole entry)

SMILES | IC50 (DU-145) [µM] | solubility [1] | solubility [2] | IC50 (VCaP) [µM] | IC50 (LNCaP) [µM] | IC50 (CWR22R) [µM] | IC50 (Androgen receptor) [µM] | inhibition [3]
CC(O)(COc1ccccc1C(F)(F)F)C(=O)Nc1ccc([N+](=O)[O-])c(C(F)(F)F)c1 (stereo unspecified) | 35.2 | Soluble | Soluble | 27.2 | 22.6 | 20.2 | 0.183 | Dose-dependent effect
CC(O)(COc1cccc(OC(F)(F)F)c1)C(=O)Nc1ccc([N+](=O)[O-])c(C(F)(F)F)c1 (stereo unspecified) | 13.1 | Soluble | Soluble | 9.6 | 9.95 | 9.31 | 0.407 | Dose-dependent effect
CC(O)(COc1ccc(C#N)cc1C(F)(F)F)C(=O)Nc1ccc(C#N)cc1C(F)(F)F (stereo unspecified) | 27.5 | Soluble | Soluble | 17.7 | 9.39 | 18.4 | 0.736 | Dose-dependent effect
CC(O)(COc1ccc(OC(F)(F)F)cc1)C(=O)Nc1ccc([N+](=O)[O-])c(C(F)(F)F)c1 (stereo unspecified) | 10.4 | Soluble | Soluble | 19.6 | 17.7 | 7.53 | 0.625 | Dose-dependent effect
CC1(C)C(=O)N(c2cccc(C(F)(F)F)c2)C(=O)N1c1cccc(C(F)(F)F)c1 | 100 | Soluble | Soluble | 75.7 | 5.61 | 60.7 | 0.123 | Dose-dependent effect
CC(O)(COc1ccccc1OC(F)(F)F)C(=O)Nc1ccc([N+](=O)[O-])c(C(F)(F)F)c1 (stereo unspecified) | 9.88 | Soluble | Soluble | 9.61 | 7.04 | 6.6 | 0.198 | Dose-dependent effect
CC(O)(CS(=O)(=O)c1ccc(OC(F)(F)F)cc1)C(=O)Nc1ccc(C#N)c(C(F)(F)F)c1 (stereo unspecified) | 27.3 | Soluble | Soluble | 32.8 | 31.6 | 17 |  | 
CC(O)(COc1ccc(C#N)cc1)C(=O)Nc1ccc([N+](=O)[O-])c(C(F)(F)F)c1 (stereo unspecified) | 32.7 | Soluble | Soluble | 26.9 | 18.7 | 30.9 |  | 
CC(O)(CSc1ccc(OC(F)(F)F)cc1)C(=O)Nc1ccc(C#N)c(C(F)(F)F)c1 (stereo unspecified) | 64 | Soluble | Soluble | 40.3 | 42.8 | 46.6 |  | 
CC(O)(CSc1cccc(OC(F)(F)F)c1)C(=O)Nc1ccc(C(F)(F)F)cc1 (stereo unspecified) | 27.8 | Soluble | Soluble | 18.8 | 13.9 | 15.9 |  | 
CC1(C)C(=O)N(c2cccc(C(F)(F)F)c2)C(=O)N1c1ccc(C(F)(F)F)cc1 | 100 | Soluble | Soluble | 100 | 16.6 | 92.5 |  | 
CC(O)(COc1ccc(C(F)(F)F)cn1)C(=O)Nc1ccc([N+](=O)[O-])c(C(F)(F)F)c1 (stereo unspecified) | 100 | Soluble | Soluble | 100 | 36.5 | 35.2 |  | 
CC(O)(COc1ccc(F)c(F)c1)C(=O)Nc1ccc([N+](=O)[O-])c(C(F)(F)F)c1 (stereo unspecified) | 21.6 | Soluble | Soluble | 18.9 | 14.5 | 18.5 |  | 
CC1(C)C(=O)N(c2cccc(C(F)(F)F)c2)C(=O)N1c1ccc([N+](=O)[O-])c(C(F)(F)F)c1 | 100 | Soluble | Soluble | 100 | 15.2 | 100 |  | 
